Measurements published in patent US9808504B2, “Immunogenic epitopes as targets for universal cancer vaccines” (Yale University, priority 2009, dated 2017).

System: freshly isolated human PBMCs
Assay: Detection of OCT4 reactive T cells in fresh PBMCs: IP10 in culture supernatant by Luminex
Assay type: cell-based
Conditions: PBMCs of 10 healthy donors cultured with individual peptides, 48 h

| Sequence | reactivity to individual peptides (fine specificity) |
| --- | --- |
| AETLVQARKRKRTSI [compound 61] | hot-spots of promiscuous reactivity |
| AQQLGLEKDVVRVWF [compound 72] | hot-spots of promiscuous reactivity |
| CKLRPLLQKWVEEA [compound 55] | hot-spots of promiscuous reactivity |
| DVVRVWFCNRRQKGK [compound 74] | hot-spots of promiscuous reactivity |
| EICKAETLVQARKRK [compound 60] | hot-spots of promiscuous reactivity |
| GLEKDVVRVWFCNRR [compound 73] | hot-spots of promiscuous reactivity |
| KRKRTSIENRVRGNL [compound 63] | hot-spots of promiscuous reactivity |
| LQQISHIAQQLGLEK [compound 70] | hot-spots of promiscuous reactivity |
| LSFKNMCKLRPLLQK [compound 53] | hot-spots of promiscuous reactivity |
| NLFLQCPKPTLQQIS [compound 67] | hot-spots of promiscuous reactivity |
| NMCKLRPLLQKWV [compound 54] | hot-spots of promiscuous reactivity |
| NRRQKGKRSSSDYA [compound 76] | hot-spots of promiscuous reactivity |
| NRVRGNLENLFLQCP [compound 65] | hot-spots of promiscuous reactivity |
| RQKGKRSSSDYAQR [compound 77] | hot-spots of promiscuous reactivity |
| SHIAQQLGLEKDVVR [compound 71] | hot-spots of promiscuous reactivity |
| VQARKRKRTSIENRV [compound 62] | hot-spots of promiscuous reactivity |
| VWFCNRRQKGKRSSS [compound 75] | hot-spots of promiscuous reactivity |
